Patent publication US20040009189A1, “Antimutagenic effects of ganoderma lucidum spores” (priority 2002, published 2004)
Like-named read-outs stand apart in the source and are kept apart here. Marks after values point to notes of the source that are not given here.

Tests used:
fetal rats [1] = test: Effects on fetal rat organogenesis (Bouins fixation, sectioning); set-up: species or system Sprague Dawley (SD) rats; settings: female, Sprague-Dawley, in vivo
Source text: Approximately ⅓ of the fetal rats were removed per litter, fixed with Bouins solution and then manually sectioned, with the various internal organs being then observed under the dissecting microscope.

[2] = Weight gain of the pregnant rats (embryotoxicity/teratogenicity study); format: in vivo; settings: days 10-12 of pregnancy
Source text: (§1) To test the embryotoxicity and teratogenic effects of GASP, a rat model was used.
(§2) Healthy SD rats weighing between 200-250 g were selected and housed together overnight at a 2:1 ratio of females to males. Beginning on the next day, vaginal smears were examined each morning, and the date when sperm was found was considered day 0 of pregnancy.
(§3) The pregnant rats were randomly divided into 5 groups, 18 rats per group. […] The human clinical dose was four capsules per dose (each capsule containing 0.3 g of the GSAP), four times daily. The study was designed so that the low dose group was 428.6 mg/kg, medium dose group was 2143 mg/kg, and the high dose group was 4286 mg/kg (equivalent to 1, 5, and 10 times the human clinical dose, respectively, when calculated according to the respective body surface areas of the rat and human). During the 6-15 days of the pregnancy, the GASP was orally administered to the rats in the dosage groups at a volume of 1.5 ml/100 g through gavage. The positive control group was given aspirin (250 mg/kg) on days 10-12 of the pregnancy, at the volume of 1.0 ml/100 g orally by means of a stomach tube, while the negative control group was given the equivalent amount of distilled water orally through gavage.
All the pregnant rats were weighed once every 3 days, so as to adjust the dosage. […]

fetal rats [3] = test: Effects on early embryo development in pregnant rats; format: in vivo; settings: aspirin 250 mg/kg oral, days 10-12 of pregnancy; 14 pregnant rats
Source text: as §1, §2, §3
All the pregnant rats were weighed once every 3 days, so as to adjust the dosage. On the day 20 of the pregnancy, the animals were sacrificed by dislocating the vertebra, and a cesarean was performed to obtain the fetal rats in order to check various indexes and for statistical analysis.

[4] = system: mice bone marrow cell chromosomal aberration induced by cyclophosphamide; settings: 500 cells
Source text: The test used was the modified mice bone marrow cell micronucleus test as specified in “A Notice Concerning Issuance of the Revised Items of the ‘Health Food Functional Assessment Procedures and Testing Methods’,” a document from the Ministry of Public Health of the People's Republic of China, which is hereby incorporated by reference.
The mice were randomly divided by weight into 9 groups, 5 males and 5 females respectively per group. Animals in each group were given the following treatment:
The drug was prepared as a suspension of the required concentration in distilled water, and administered orally through tube at individual dosages of 0.2 mL/10 g of body weight. The negative control group was given distilled water of the equivalent volume through tube once a day for 30 days continuously. […] 4 hours before the mice were sacrificed they are given colchicine, and the bone marrow was extracted in order to prepare the chromosome samples in the routine way.
Samples from each group were observed. One hundred (100) metaphase cells per mouse were observed, and the chromosomal structures and the numbers of aberrations were recorded. Using SPSS for Windows 8.0 (t-test), a comparative analysis was made of the experimental data from the various dosage groups and the positive groups and tested to find out if there was any significant difference between the males and females within the group.

[5] = system: bone marrow cells of mice
Method: Male NIH mice weighing 22-25 g, provided by the Guangdong Provincial Animal Center for Medical Experiments, were used. […] Each group contained 5 mice. Dosages were administered once a day for 3 consecutive days, orally via gavage.
Distilled water was then added to adjust the suspension to the required concentration. The compound was orally administered through gavage at 0.4 ml/10 g of body weight. […] Twenty four (24) hours after the last administration the animals were sacrificed by dislocation of the cervical vertebra. The femur was then removed, the muscle stripped away, and the bone marrow flushed out using phosphate buffer, centrifuged, fixed hyponotically and the chromosome sample is prepared using methods routine in the art. It was then stained for 10 min using 10% Giemsa's stain (pH 6.8).
Well dispersed Metaphase cells were selected for observation under the oil immersion lens. One hundred (100) metaphase cells were observed per animal, the number of cells with chromosomal aberrations noted, and the chromosomal aberration rate calculated. The data obtained were analyzed statistically calculated using SPSS for Windows 8.0 (t-test).

[6] = CP 40 mg/kg alone (positive group), F
[7] = CP 40 mg/kg alone (positive group), M
[8] = CP 50 mg/kg alone (positive group 4), F
[9] = CP 50 mg/kg alone (positive group 4), M
[10] = positive control: cyclophosphamide 40 mg/kg oral, single administration, 500 cells counted

Structure (SMILES): CC(=O)Oc1ccccc1C(=O)O [Aspirin, aspirin]
- Number of hydrocephalic fetal rats (fetal rats [1]): 2
- Net Weight Gain ([2]; aspirin 250 mg/kg oral): 47.8 ± 13.9 g
- Net weight gain vs negative control group ([2]; aspirin 250 mg/kg, p<0.05): significantly lower than that of the negative control group
- Mean no. survivors per litter (fetal rats [3]): 4.0*
- No. of litters with dead fetuses (fetal rats [3]): 5
- No. surviving fetus (fetal rats [3]): 56

Structure (SMILES): O=P1(N(CCCl)CCCl)NCCCO1 (stereo not shown) [CP, cyclophosphamide]
- Abberant Cell Count [4, 6]: 118
- Abnormality Rate [4, 6]: 1.2
- Cell Aberration Rate % [4, 6]: 23.6%
- No. of Abnormalities Polyploid [4, 6]: 5
- No. of Abnormalities hyperploid [4, 6]: 1
- No. of Abormal Cells [4, 6]: 6
- crb (chromatid break) [4, 6]: 95
- csb (chromosome break) [4, 6]: 28
- csg (chromosome gap) [4, 6]: 0
- ctg (chromatid gap) [4, 6]: 16
- del (nullisomic) [4, 6]: 50
- dmin (dimicrobody) [4, 6]: 0
- f (fragment) [4, 6]: 60
- r (ring chromosome) [4, 6]: 0
- tr (triradial) [4, 6]: 21
- Abberant Cell Count [4, 7]: 108
- Abnormality Rate [4, 7]: 1.8
- Cell Aberration Rate % [4, 7]: 21.6%
- No. of Abnormalities Polyploid [4, 7]: 6
- No. of Abnormalities hyperploid [4, 7]: 1
- No. of Abormal Cells [4, 7]: 9
- crb (chromatid break) [4, 7]: 94
- csb (chromosome break) [4, 7]: 19
- csg (chromosome gap) [4, 7]: 0
- ctg (chromatid gap) [4, 7]: 18
- del (nullisomic) [4, 7]: 47
- dmin (dimicrobody) [4, 7]: 0
- f (fragment) [4, 7]: 62
- r (ring chromosome) [4, 7]: 0
- tr (triradial) [4, 7]: 15
- Abberant Cell Count [4, 8]: 221
- Abnormality Rate [4, 8]: 2.0
- No. of Abnormalities Polyploid [4, 8]: 5
- No. of Abnormalities hyperploid [4, 8]: 5
- No. of Abormal Cells [4, 8]: 10
- crb (chromatid break) [4, 8]: 185
- csb (chromosome break) [4, 8]: 21
- csg (chromosome gap) [4, 8]: 0
- ctg (chromatid gap) [4, 8]: 18
- del (nullisomic) [4, 8]: 103
- dmin (dimicrobody) [4, 8]: 0
- f (fragment) [4, 8]: 117
- r (ring chromosome) [4, 8]: 0
- tr (triradial) [4, 8]: 32
- Abberant Cell Count [4, 9]: 198
- Abnormality Rate [4, 9]: 2.2
- No. of Abnormalities Polyploid [4, 9]: 9
- No. of Abnormalities hyperploid [4, 9]: 2
- No. of Abormal Cells [4, 9]: 11
- crb (chromatid break) [4, 9]: 170
- csb (chromosome break) [4, 9]: 33
- csg (chromosome gap) [4, 9]: 0
- ctg (chromatid gap) [4, 9]: 18
- del (nullisomic) [4, 9]: 92
- dmin (dimicrobody) [4, 9]: 0
- f (fragment) [4, 9]: 100
- r (ring chromosome) [4, 9]: 1
- tr (triradial) [4, 9]: 29
- Chromosomal aberration rate vs negative control group ([5]; CP 40 mg/kg, p<0.01): noticeably higher than that of the negative control group
- Chromosomal Aberration Rate (%) [5, 10]: 25.0* %
- No. aberrant cells [5, 10]: 115
- Type and Number of Aberration: I (chromosomal fragmentation) [5, 10]: 35
- Type and Number of Aberration: b (chromosomal breakage) [5, 10]: b(48)
- Type and Number of Aberration: f (chromosal fusion) [5, 10]: 59
